# Results from patent US20220370453A1 (Storm Therapeutics Ltd, priority 2019, published 2022).
# Target: T1, BCDIN3D (Homo sapiens, UniProt Q7Z5W3)
# T1 sequence (Q7Z5W3 1-292): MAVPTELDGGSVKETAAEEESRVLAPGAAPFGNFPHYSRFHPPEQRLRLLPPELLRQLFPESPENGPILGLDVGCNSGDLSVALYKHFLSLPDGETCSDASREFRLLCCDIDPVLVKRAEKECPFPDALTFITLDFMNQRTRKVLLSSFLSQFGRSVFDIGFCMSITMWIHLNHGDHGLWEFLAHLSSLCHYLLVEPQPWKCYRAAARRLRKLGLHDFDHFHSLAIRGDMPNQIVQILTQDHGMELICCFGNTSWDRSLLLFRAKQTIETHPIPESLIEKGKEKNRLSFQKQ
# Test: BCDIN3D IC50 RFMS (RapidFire) assay with mini-helix
# Type: biochemical
# Conditions: mini-helix 0.2 μM and SAM 6 μM as substrates, 25 nM enzyme, 1 hr at 37° C.
# Experimental: The following General Methods details the assay conditions for the Biological assays.
# BCDIN3D IC50 RFMS Assay with Mini-Helix
# The enzymatic assay was performed in a 384-well polypropylene plate in assay buffer with 25 mM Tris pH 8.0, 10 mM DTT, 1 mM EDTA, 0.03% BSA in a final assay volume of 20 μL. The enzyme with a final concentration of 25 nM was pre-incubated with the respective compound at 1% DMSO final assay concentration over 10 min at room temperature. The reaction was initiated by addition of 0.2 μM final assay concentration of mini-helix and 6 μM final concentration of SAM as substrates. After a 1 hr incubation at 37° C., the reaction was terminated with 40 μL of stop solution of 7.5% trichloroactetic acid in water containing 112.5 nM D4-SAH and 30 nM ^13C10-SAH used as internal standards. The SAH product concentrations as well as both internal standards were analyzed by a RapidFire High Throughput Mass Spectrometry System (Agilent Technologies, Santa Clara, Calif.) using an AP14000 triple quadrupole mass spectrometer (AB Sciex Framingham, Mass.).
row,Structure (SMILES),IC50
1,"Cn1ncc2c(Nc3cccc(C(F)(F)F)c3)nc(NCCN)nc21 [Compound 1.02, N6-(2-aminoethyl)-1-methyl-N4-[3-(trifluoromethyl)phenyl]-1H-pyrazolo[3,4-d]pyrimidine-4,6-diamine]",4.27 µM
2,"COc1ccc(C(=O)N2CCC(CNc3nc(NCCN)nc4c3cnn4C)CC2)cc1Cl [Compound 1.37, N6-(2-aminoethyl)-N4-{[1-(3-chloro-4-methoxybenzoyl)piperidin-4-yl]methyl}-1-methyl-1H-pyrazolo[3,4-d]pyrimidine-4,6-diamine]",7.62 µM
3,"Cn1ncc2c(NCc3ccc4nc[nH]c4c3)nc(NCCN)nc21 [Compound 1.13, N6-(2-aminoethyl)-N4-[(1H-1,3-benzodiazol-5-yl)methyl]-1-methyl-1H-pyrazolo[3,4-d]pyrimidine-4,6-diamine]",7.8 µM
4,"Cn1ncc2c(NCC3CCN(S(=O)(=O)c4ccccc4)CC3)nc(NCCN)nc21 [Compound 1.12, N6-(2-aminoethyl)-N4-{[1-(benzenesulfonyl)piperidin-4-yl]methyl}-1-methyl-1H-pyrazolo[3,4-d]pyrimidine-4,6-diamine]",9.52 µM
5,"Cn1ncc2c(NC(C)(C)C)nc(NC[C@@H](N)C3CCCCC3)nc21 [Compound 7.23, N6-[(2S)-2-amino-2-cyclohexylethyl]-N4-tert-butyl-1-methyl-1H-pyrazolo[3,4-d]pyrimidine-4,6-diamine]",5.17 µM
6,"COc1cc(Cl)cc(CNc2nc(NCCN)nc3c2cnn3C)c1 [Compound 1.20, N6-(2-aminoethyl)-N4-[(3-chloro-5-methoxyphenyl)methyl]-1-methyl-1H-pyrazolo[3,4-d]pyrimidine-4,6-diamine]",3.53 µM
7,"Cc1ccc(CNc2nc(N[C@@H]3CCCC[C@H]3N)nc3c2cnn3C)cc1Cl [Compound 7.03, 6-N-[(1R,2R)-2-aminocyclohexyl]-4-N-[(3-chloro-4-methylphenyl)methyl]-1-methylpyrazolo[3,4-d]pyrimidine-4,6-diamine]",8.58 µM
8,"Cn1ncc2c(NCc3ccc4occc4c3)nc(NCCN)nc21 [Compound 1.10, N6-(2-aminoethyl)-N4-[(1-benzofuran-5-yl)methyl]-1-methyl-1H-pyrazolo[3,4-d]pyrimidine-4,6-diamine]",5.49 µM
9,"Cn1ncc2c(NCc3ccc(F)cc3F)nc(NCCN)nc21 [Compound 1.19, N6-(2-aminoethyl)-N4-[(2,4-difluorophenyl)methyl]-1-methyl-1H-pyrazolo[3,4-d]pyrimidine-4,6-diamine]",6.38 µM
10,"COc1ccc(CCNc2nc(NCCN)nc3c2cnn3C)cn1 [Compound 1.07, N6-(2-aminoethyl)-N4-[2-(6-methoxypyridin-3-yl)ethyl]-1-methyl-1H-pyrazolo[3,4-d]pyrimidine-4,6-diamine]",4.38 µM
11,"COc1ccc(CNc2nc(NCCN)nc3c2c(C)nn3C)cc1Cl [Compound 1.29, N6-(2-aminoethyl)-N4-[(3-chloro-4-methoxyphenyl)methyl]-1,3-dimethyl-1H-pyrazolo[3,4-d]pyrimidine-4,6-diamine]",2.9 µM
12,"[2H]C([2H])([2H])n1ncc2c(NC(C)(C)C)nc(NCC(N)c3ccccc3F)nc21 (stereo in doubt) [Compound 7.16, N6-[(2R)-2-amino-2-(2-fluorophenyl)ethyl]-N4-tert-butyl-1-(trideuteriomethyl)pyrazolo[3,4-d]pyrimidine-4,6-diamine]",0.069 µM
13,"Cn1ncc2c(NCC3CCN(C(=O)c4ccccc4)CC3)nc(NCCN)nc21 [Compound 1.42, N6-(2-aminoethyl)-N4-[(1-benzoylpiperidin-4-yl)methyl]-1-methyl-1H-pyrazolo[3,4-d]pyrimidine-4,6-diamine]",5.76 µM
14,"Cn1ncc2c(NC(C)(C)C)nc(NC[C@H](N)c3ccc(F)c(F)c3)nc21 [Compound 7.20, N6-[(2R)-2-amino-2-(3,4-difluorophenyl)ethyl]-N4-tert-butyl-1-methyl-1H-pyrazolo[3,4-d]pyrimidine-4,6-diamine]",0.8 µM
15,"Cn1ncc2c(NCc3ccc(F)c(Cl)c3)nc(NCCN)nc21 [Compound 1.17, N6-(2-aminoethyl)-N4-[(3-chloro-4-fluorophenyl)methyl]-1-methyl-1H-pyrazolo[3,4-d]pyrimidine-4,6-diamine]",6.9 µM
16,"Cn1ncc2c(NCC3CCN(C(=O)OC(C)(C)C)CC3)nc(NCCN)nc21 [Compound 1.40, tert-butyl 4-[({6-[(2-aminoethyl)amino]-1-methyl-1H-pyrazolo[3,4-d]pyrimidin-4-yl}amino)methyl]piperidine-1-carboxylate]",6.19 µM
17,"COc1ccc(CCNc2nc(NCCN)nc3c2cnn3C)cc1Cl [Compound 1.08, N6-(2-aminoethyl)-N4-[2-(3-chloro-4-methoxyphenyl)ethyl]-1-methyl-1H-pyrazolo[3,4-d]pyrimidine-4,6-diamine]",2.8 µM
18,"COc1ccc(CNc2nc(NCCN)nc3c2cnn3C)cc1 [Compound 1.39, N6-(2-aminoethyl)-N4-[(4-methoxyphenyl)methyl]-1-methyl-1H-pyrazolo[3,4-d]pyrimidine-4,6-diamine]",6.91 µM
19,"Cn1ncc2c(NCCc3ccc4c(c3)OCO4)nc(NCCN)nc21 [Compound 1.09, N6-(2-aminoethyl)-N4-[2-(2H-1,3-benzodioxol-5-yl)ethyl]-1-methyl-1H-pyrazolo[3,4-d]pyrimidine-4,6-diamine]",4.07 µM

# Same assay, conditions: mini-helix substrate 0.2 μM, SAM 6 μM, 25 nM enzyme
row,Structure (SMILES),IC50
1,"Cc1ccc(CNc2nc(NC[C@H]3CCCN3)nc3c2cnn3C)cc1Cl [Compound 3.17, 4-N-[(3-chloro-4-methylphenyl)methyl]-1-methyl-6-N-[[(2R)-pyrrolidin-2-yl]methyl]pyrazolo[3,4-d]pyrimidine-4,6-diamine]",9.57 µM
2,"[2H]C([2H])([2H])Nc1nc(NCC(N)c2ccccc2)nc2c1cnn2C (centres unmarked) [Compound 4.37, 6-N-(2-amino-2-phenylethyl)-1-methyl-4-N-(trideuteriomethyl)pyrazolo[3,4-d]pyrimidine-4,6-diamine]",8.01 µM
3,"Cc1ccc(CNc2nc(NC(C)CN)nc3c2cnn3C)cc1Cl (centres unmarked) [Compound 3.02, 6-N-(1-aminopropan-2-yl)-4-N-[(3-chloro-4-methylphenyl)methyl]-1-methylpyrazolo[3,4-d]pyrimidine-4,6-diamine]",6.56 µM
4,"Cn1ncc2c(NC34CC(C3)C4)nc(NCC3(N)CC3)nc21 [Compound 2.38, 6-N-[(1-aminocyclopropyl)methyl]-4-N-(3-bicyclo[1.1.1]pentanyl)-1-methylpyrazolo[3,4-d]pyrimidine-4,6-diamine]",1.71 µM
5,"Cn1ncc2c(NC(C)(C)CCO)nc(NC[C@H](N)c3ccccc3)nc21 [Compound 4.70, 3-[[6-[[(2R)-2-amino-2-phenyl-ethyl]amino]-1-methyl-pyrazolo[3,4-d]pyrimidin-4-yl]amino]-3-methyl-butan-1-ol]",1.3 µM
6,"Cn1ncc2c(NC(C)(C)C)nc(NCC(N)c3ccc(F)c(F)c3)nc21 (centres unmarked) [Compound 5.31, N6-[2-amino-2-(3,4-difluorophenyl)ethyl]-N4-tert-butyl-1-methyl-pyrazlo[3,4-d]pyrimidine-4,6-diamine]",0.35 µM
7,"Cn1ncc2c(NC(C)(C)C)nc(NCC(N)c3ccc(F)cc3)nc21 (centres unmarked) [Compound 5.30, N6-[2-amino-2-(4-fluorophenyl)ethyl]-N4-tert-butyl-1-methyl-1H-pyrazolo[3,4-d]pyrimidine-4,6-diamine]",0.37 µM
